Experimental findings from PMC2248166, “Quantitative peptide binding motifs for 19 human and mouse MHC class I molecules derived using positional scanning combinatorial peptide libraries” (Immunome Research, 2008) are described below.

This experiment addresses HLA B*0801 (Homo sapiens, UniProt P01889, A93T/A95T/D138N/E176V/E187T/K202T/Q94N/R180D/S35A/V36M/Y33D/Y91F). Put plainly: biochemical. It is filed as binding.

Structures are written as SMILES. Where a SMILES comes first, the peptide text is derived from it.

What is called IC50 is the point on the concentration scale where inhibition reaches its midpoint. Low readings indicate higher potency, high ones lower potency. As to `CSCC[C@H](N)C(=O)N[C@@H](CCCNC(=N)N)C(=O)N[C@@H](Cc1ccccc1)C(=O)N[C@@H](CCCCN)C(=O)N[C@@H](CCCCN)C(=O)N[C@@H](CCC(=O)O)C(=O)N[C@@H](CO)C(=O)N[C@@H](CO)C(=O)N[C@@H](CC(C)C)C(=O)O` [3102.0545] (H-MRFKKESSL-OH), the IC50 was determined as 3.4 nM.

As to `CC(C)C[C@H](NC(=O)CNC(=O)[C@@H](N)CC(N)=O)C(=O)N[C@H](C(=O)N[C@@H](CCCNC(=N)N)C(=O)N[C@@H](CC(C)C)C(=O)N[C@@H](CC(N)=O)C(=O)N[C@@H](C)C(=O)N[C@@H](Cc1ccccc1)C(=O)O)C(C)C` [3102.0603] (H-NGLVRLNAF-OH), the IC50 turned out to be 57 nM.

Molecule `CC[C@H](C)[C@H](NC(=O)[C@H](Cc1c[nH]cn1)NC(=O)[C@H](C)NC(=O)[C@H](Cc1ccc(O)cc1)NC(=O)[C@H](CC(C)C)NC(=O)[C@@H](N)CC(C)C)C(=O)N[C@@H](CC(N)=O)C(=O)N[C@@H](C)C(=O)N[C@@H](CC(C)C)C(=O)O` [3102.0757] (H-LLYAHINAL-OH) came in with an IC50 of 1.4 nM.

For the molecule `CSCC[C@H](NC(=O)[C@@H](NC(=O)[C@H](CS)NC(=O)[C@H](CCCCN)NC(=O)[C@H](CCC(N)=O)NC(=O)[C@H](CC(C)C)NC(=O)[C@H](CCCCN)NC(=O)[C@H](CC(C)C)NC(=O)[C@@H](N)CCSC)C(C)C)C(=O)O` [3102.0611] (H-MLKLQKCVM-OH), it took 9.3 nM to reach half-maximal inhibition (IC50).

The molecule `CC[C@H](C)[C@H](NC(=O)[C@H](CCCNC(=N)N)NC(=O)[C@@H](NC(=O)[C@H](CCCCN)NC(=O)[C@H](CC(C)C)NC(=O)[C@@H](N)CCCNC(=N)N)[C@@H](C)O)C(=O)N[C@@H](CCCNC(=N)N)C(=O)N[C@@H](CC(N)=O)C(=O)N[C@@H](CC(C)C)C(=O)O` [3102.0740] (H-RLKTRIRNL-OH) showed an IC50 of 0.69 nM.

`CC[C@H](C)[C@H](NC(=O)[C@@H](NC(=O)[C@H](CCC(N)=O)NC(=O)[C@H](CCCNC(=N)N)NC(=O)[C@H](CCCCN)NC(=O)[C@H](Cc1ccccc1)NC(=O)[C@H](CO)NC(=O)[C@@H]1CCCN1C(=O)[C@@H](N)CC(N)=O)[C@@H](C)CC)C(=O)O` [3102.0704] (H-NPSFKRQII-OH) showed an IC50 of 20 nM.

Consider `CSCC[C@H](NC(=O)[C@H](C)NC(=O)[C@H](CC(C)C)NC(=O)[C@H](CO)NC(=O)[C@H](CCCCN)NC(=O)[C@H](CCSC)NC(=O)[C@H](CCCNC(=N)N)NC(=O)[C@H](CCCCN)NC(=O)[C@@H](N)CC(=O)O)C(=O)O` [3102.0560] (H-DKRMKSLAM-OH), for which the IC50 turned out to be 9.9 nM.

`CC(C)C[C@H](NC(=O)[C@@H]1CCCN1C(=O)[C@@H](N)CO)C(=O)N[C@@H](CO)C(=O)N[C@@H](CCCCN)C(=O)N[C@@H](CS)C(=O)N[C@H](C(=O)N[C@H](C(=O)N[C@H](C(=O)O)C(C)C)C(C)C)C(C)C` [3102.0613] (H-SPLSKCVVV-OH) returned an IC50 of 31 nM.

`CSCC[C@H](N)C(=O)N[C@@H](CC(C)C)C(=O)N[C@@H](CC(C)C)C(=O)N[C@@H](CCCCN)C(=O)N[C@@H](CCCCN)C(=O)N[C@@H](CC(C)C)C(=O)N[C@@H](CC(N)=O)C(=O)N[C@@H](CO)C(=O)N[C@@H](Cc1ccccc1)C(=O)O` [3102.0753] (H-MLLKKLNSF-OH) displayed an IC50 of 0.57 nM.

Take `CC[C@H](C)[C@H](NC(=O)[C@H](CC(C)C)NC(=O)[C@@H](N)CC(N)=O)C(=O)N[C@H](C(=O)N[C@@H](Cc1c[nH]cn1)C(=O)N[C@H](C(=O)N[C@@H](C)C(=O)N[C@@H](C)C(=O)N[C@@H](CC(C)C)C(=O)O)[C@@H](C)O)[C@@H](C)CC` [3102.0785] (H-NLIIHTAAL-OH): 1.6 nM corresponded to half-maximal inhibition (IC50).

For the molecule `CC(C)C[C@H](NC(=O)[C@H](CC(N)=O)NC(=O)[C@@H](NC(=O)[C@H](CC(C)C)NC(=O)[C@H](CCCNC(=N)N)NC(=O)[C@H](CCC(N)=O)NC(=O)[C@H](CCCCN)NC(=O)[C@H](CC(C)C)NC(=O)[C@@H](N)[C@@H](C)O)[C@@H](C)O)C(=O)O` [3102.0747] (H-TLKQRLTNL-OH), the midpoint of inhibition, the IC50, lay at 1.7 nM.

Molecule `CC[C@H](C)[C@H](NC(=O)[C@H](CCCNC(=N)N)NC(=O)[C@@H](NC(=O)[C@H](CCCCN)NC(=O)[C@H](CCCCN)NC(=O)[C@@H](N)CO)[C@@H](C)O)C(=O)N[C@@H](CO)C(=O)N[C@@H](CC(=O)O)C(=O)N[C@@H](CC(C)C)C(=O)O` [3102.0741] (H-SKKTRISDL-OH) showed an IC50 of 2.8 nM.

Molecule `CC(C)C[C@H](NC(=O)[C@H](CCCCN)NC(=O)[C@H](CCCNC(=N)N)NC(=O)[C@@H](N)CCCNC(=N)N)C(=O)N[C@@H](CC(C)C)C(=O)N[C@@H](CCCNC(=N)N)C(=O)N[C@@H](CCCNC(=N)N)C(=O)N1CCC[C@H]1C(=O)N[C@@H](Cc1ccccc1)C(=O)O` [3102.0530] (H-RRKLLRRPF-OH) registered an IC50 of 11 nM.

`CC[C@H](C)[C@H](NC(=O)[C@H](CO)NC(=O)CNC(=O)[C@H](CCCCN)NC(=O)[C@H](CCCNC(=N)N)NC(=O)[C@H](CC(C)C)NC(=O)[C@H](CCCNC(=N)N)NC(=O)[C@H](CCCNC(=N)N)NC(=O)[C@@H](N)Cc1ccccc1)C(=O)O` [3102.0773] (H-FRRLRKGSI-OH) registered an IC50 of 3 nM.

In turn, `CC[C@H](C)[C@H](NC(=O)[C@@H]1CCCN1C(=O)[C@H](CCCNC(=N)N)NC(=O)[C@H](Cc1c[nH]cn1)NC(=O)[C@H](CCCNC(=N)N)NC(=O)[C@H](CCCCN)NC(=O)[C@H](CC(N)=O)NC(=O)[C@@H](N)CO)C(=O)NCC(=O)O` [3102.0687] (H-SNKRHRPIG-OH) gave a half-inhibitory concentration (IC50) of 34 nM.

For the molecule `CC(C)C[C@H](NC(=O)[C@H](CO)NC(=O)CNC(=O)[C@H](Cc1ccc(O)cc1)NC(=O)[C@H](CCCCN)NC(=O)[C@H](Cc1c[nH]cn1)NC(=O)[C@H](CCCCN)NC(=O)[C@H](CC(C)C)NC(=O)[C@@H](N)Cc1ccccc1)C(=O)O` [3102.0617] (H-FLKHKYGSL-OH), the midpoint of inhibition, the IC50, lay at 0.14 nM.

As for `CSCC[C@H](NC(=O)[C@H](CS)NC(=O)[C@H](CCCNC(=N)N)NC(=O)[C@H](Cc1ccc(O)cc1)NC(=O)[C@H](CCCCN)NC(=O)[C@H](CCCCN)NC(=O)[C@@H](N)CC(N)=O)C(=O)N[C@@H](C)C(=O)N[C@@H](CC(C)C)C(=O)O` [3102.0619] (H-NKKYRCMAL-OH), inhibition was half-maximal at 1.9 nM (IC50).

`CC[C@H](C)[C@H](NC(=O)[C@H](CC(=O)O)NC(=O)[C@H](CC(C)C)NC(=O)[C@H](CCCCN)NC(=O)[C@H](CCCCN)NC(=O)[C@H](CCCNC(=N)N)NC(=O)[C@H](CCCCN)NC(=O)[C@@H](NC(=O)[C@@H](N)Cc1ccccc1)C(C)C)C(=O)O` [3102.0707] (H-FVKRKKLDI-OH) showed an IC50 of 3 nM.

Regarding `CC(C)C[C@H](NC(=O)[C@@H]1CCCN1C(=O)[C@H](CS)NC(=O)[C@H](CCCNC(=N)N)NC(=O)[C@H](CCCNC(=N)N)NC(=O)[C@H](CCCNC(=N)N)NC(=O)[C@H](CC(C)C)NC(=O)[C@H](Cc1ccccc1)NC(=O)[C@@H](N)CC(C)C)C(=O)O` [3102.0764] (H-LFLRRRCPL-OH), the 50% inhibitory concentration (IC50) worked out at 0.13 nM.

For the molecule `CC[C@H](C)[C@H](N)C(=O)N[C@@H](CC(C)C)C(=O)N[C@@H](CCCNC(=N)N)C(=O)N[C@@H](CCCCN)C(=O)N[C@H](C(=O)N[C@@H](Cc1ccccc1)C(=O)N[C@@H](Cc1ccc(O)cc1)C(=O)N[C@@H](CO)C(=O)N[C@H](C(=O)O)C(C)C)[C@@H](C)CC` [3102.0538] (H-ILRKIFYSV-OH), the midpoint of inhibition, the IC50, lay at 0.1 nM.

In turn, `CC(C)C[C@H](NC(=O)[C@@H](N)Cc1c[nH]cn1)C(=O)N[C@@H](CCCCN)C(=O)N[C@@H](Cc1c[nH]cn1)C(=O)N[C@@H](Cc1c[nH]cn1)C(=O)N[C@@H](CCCCN)C(=O)N[C@@H](CCC(N)=O)C(=O)N[C@@H](CS)C(=O)N[C@H](C(=O)O)C(C)C` [3102.0763] (H-HLKHHKQCV-OH) yielded an IC50 of 4.5 nM.
